{"source": "patent US20230346777A1", "about": "“USE OF SGC ACTIVATORS FOR THE TREATMENT OF OPHTHALMOLOGIC DISEASES” (Bayer Aktiengesellschaft, priority 2020, published 2023)", "key": {"[1]": {"tested_on": "retinal ischemia reperfusion (I/R) in rat", "assay": "Sub-chronic changes in rat retinal structure after retinal ischemia reperfusion (I/R), therapeutic and prophylactic settings", "format": "in vivo, male Wistar Unilever rats", "conditions": "for IPL (inner plexiform layer) thickness: H&E sections", "excerpt": "B-8 Evaluation of Sub-Chronic Changes in Rat Retinal Structure after Retinal Ischemia Reperfusion (I/R) Therapeutic and Prophylactic Settings\nSix male Wistar Unilever rats were used per experimental group. On induction day, rats were anesthetized with an intraperitoneal injection of Rompun® and Ketavet® before the pupils of the right eyes were dilated with Alcain eye drops and in addition treated with Vigamox® eye drops. The left eye is covered with Bepanthen® eye cream. Under deep anesthesia, the retina and the optic nerve were examined by optical coherence tomography (OCT) as a baseline measurement. The induction was done as the anterior chamber was punctured with a 30 G needle. Through a tube, 0.9% NaCl solution was pumped into the anterior chamber with a pressure 120 mm Hg. The pressure is regulated with a blood pressure cuff. The intraocular pressure (IOP) was elevated for 45 min. The procedure was successful as the eyeballs discolored because of vascular obstruction. After 45 min, the needle was removed, eye cream was put on the right eye and the animal could wake up. Compound (e.g. example 3, formula I-E-R) or its vehicle were orally applied, once daily (QD). The application volume was 5 mL/kg. In prophylactic setting, animals started the treatment 2 days before induction and received an intravenous (IV) bolus of compound (e.g. example 3, formula I-E-R) (i.v. 3 mg/kg in rat plasma) 15 minutes before induction. Treatment continued then after for 21 days. In the therapeutic setting, animals received an intravenous (IV) bolus of compound (e.g. example 3, formula I-E-R) (i.v. 3 mg/kg in rat plasma) 15 minutes after induction. Treatment continued then after for 21 days; once daily (3 mg/kg, PO QD). At day 7 and day 21, the retina and the optic nerve were examined by optical coherence tomography (OCT). The retinal function was evaluated by the ERG (Electroretinography) at day 7 and day 21 post induction according to the method disclosed in McCulloch et al., 2015. Functional read-out of retinal electrical signal in response to light stimulation “b-wave amplitude (μv)” represents inner retinal function. Then the eyes were collected for histopathology and preserved in Davidson's solution. The eye sections were stained with hematoxylin and eosin staining. The total retinal thickness and the inner plexiform layer thickness was measured at 1000 μm distances from the optic nerve using (Microscope Software ZEN, Zeiss, Germany).\nNeuroprotection: The inner plexiform layer (IPL) functions as a relay station for the vertical-information-carrying nerve cells, the bipolar cells, to connect the photoreceptor cells to the ganglion cells. The IPL layer thickness was measured in histological sections stained with (H&E)."}, "[2]": {"tested_on": "retinal ischemia reperfusion (I/R) in rat", "assay": "Acute changes in rat retinal structure after retinal ischemia reperfusion (I/R), prophylactic settings", "format": "in vivo, male Wistar Unilever rats", "conditions": "I/R rats", "excerpt": "B-7 Evaluation of Acute Changes in Rat Retinal Structure after Retinal Ischemia Reperfusion (I/R) Prophylactic Settings\nSix male Wistar Unilever rats were used per experimental group. On induction day, rats were anesthetized with an intraperitoneal injection of Rompun® and Ketavet® before the pupils of the right eyes (oculus dextrus, OD) were dilated with Alcain eye drops and in addition treated with Vigamox® eye drops. The left eye (oculus sinister, OS) is covered with Bepanthen® eye cream. Under deep anesthesia, the retina and the optic nerve were examined by optical coherence tomography (OCT) as a baseline measurement. 15 minutes before induction, group 2 received an intravenous (IV) bolus of compound (e.g. example 3, formula I-E-R) (i.v. 3 mg/kg in rat plasma). Then, the anterior chamber was punctured with a 30 G needle. Through a tube, 0.9% NaCl solution was pumped into the anterior chamber with a pressure 120 mm Hg. The pressure is regulated with a blood pressure cuff. The intraocular pressure (IOP) was elevated for 45 min. The procedure was successful as the eyeballs discolored because of vascular obstruction. After 45 min, the needle was removed, eye cream was put on the right eye and the animal could wake up. […]\nFunctional read-out of retinal electrical signal in response to light stimulation “b-wave amplitude (μv)” represents inner retinal function. […]"}}, "note": "Entries after “also recorded” stand apart in the source; their conditions may differ. Counter-ions that a name gives are not always drawn.", "data": [{"smiles": "CC(C)CN1CCN(c2ccc(-c3ccc(Cl)cc3N3CCC[C@@H](n4ncc(C(=O)O)c4C(F)F)C3)cc2)CC1", "note": "[Example 3, 1-{1-[4-Chloro-4′-(4-isobutylpiperazin-1-yl)[biphenyl]-2-yl]piperidin-3-yl}-5-(difluoromethyl)-1H-pyrazole-4-carboxylic acid hydrochloride]", "values": [{"measurement": "retinal structure and photoreceptors integrity (histology)", "setting": "[1]; I/R rats vs IR only", "result": "the retinal structure was preserved, and the photoreceptors integrity was intact"}, {"measurement": "retinal thickness (histology)", "setting": "[1]; I/R rats, 3 mg/kg PO QD for 21 days plus i.v. 3 mg/kg bolus, at 3 weeks vs IR only", "result": "significantly higher retinal thickness compared to IR only animals"}, {"measurement": "retinal structure / mean total retinal thickness by optical coherence tomography (OCT)", "setting": "[1]; I/R rats, 1- and 3-weeks post induction vs IR only", "result": "protect retinal structure"}, {"measurement": "retinal function measured by ERG (b wave amplitude)", "setting": "[1]; I/R rats, one week and 3 weeks post induction vs IR, hydrochloride", "result": "significant difference in retinal function; also recorded: reduces ischemia induced retinal dysfunction"}, {"measurement": "IPL (inner plexiform layer) thickness", "setting": "[1]; I/R rats, prophylactic setting (FIG. 4A)", "result": "preserved"}, {"measurement": "IPL (inner plexiform layer) thickness", "setting": "[1]; I/R rats, therapeutic setting (FIG. 4B)", "result": "preserved"}, {"measurement": "retinal structure (OCT and histological examination)", "setting": "[2]; day 7 post ischemic induction", "result": "preserved retinal structure in both OCT and histological examination"}, {"measurement": "b wave amplitude (ERG, retinal function)", "setting": "[2]; oral QD from 2 days before to 6 days after induction plus i.v. 3 mg/kg bolus 15 min before induction, day 7 post induction, hydrochloride, 3 mg/kg", "result": "significant higher b wave amplitude compared to vehicle treated animals; also recorded: reduces ischemia induced retinal dysfunction"}]}]}
